Data on eleven molecules can be found in US20200078468A1, “NEUROTENSIN RECEPTOR BINDING CONJUGATES AND FORMULATIONS THEREOF” (priority 2016, published 2020).

For one test, the target named is T1, human NTSR1 (Homo sapiens, UniProt P30989).
T1 construct: host or cells: HEK-293 cells (membrane preparations)
Description: radioligand-receptor binding assay, [125I] labeled neurotensin (Eurofins Panlabs). To be noted: [125I] neurotensin 0.02 nM, membranes from NTSR1 expressing HEK-293 cells, 45 minute incubation, Cheng and Prusoff; read-out: NTSR1 binding Ki. Here is the method:
Conjugates were assessed in an in vitro assay evaluating binding to NTSR1. A radioligand-receptor binding assay was conducted at Eurofins Panlabs (Taiwan) to determine the affinity of conjugates described herein to NTSR1. The assay measures binding of radiolabeled ligand, [^125I] labeled neurotensin, to human NTSR1 using membrane preparations from NTSR1 expressing HEK-293 cells (Human embryonic kidney cells 293). Membranes were incubated with radiolabeled neurotensin (0.02 nM) in the presence of conjugate/compound starting at a dose of either 100 nM, or 10 nM, using 3× serial dilutions to obtain a 6-pt curve. After a 45 minute incubation, membranes were filtered and washed 3× and counted to determine the remaining [^125I] neurotensin bound to the receptor. IC50 values were determined by a non-linear, least squares regression analysis using MathIQ™ (ID Business Solutions Ltd., UK). The Ki values were calculated using the equation of Cheng and Prusoff (Cheng and Prusoff, Biochem. Pharmacol. 22:3099-3108, 1973) using the observed IC50 of the tested conjugate/compound, the concentration of radioligand employed in the assay, and the historical values for the Kd of the ligand obtained at Eurofins.

The test system of test [1] is SW48 (human colon cancer cells). Description: inhibition of SW48 cell proliferation (CellTiter Glo). In kind it is cell-based. The conditions noted are these: NTSR1 scrambled compound; 72 hrs; read-out: SW-48 proliferation IC50. The protocol: Conjugates were assessed in an in vitro assay evaluating inhibition of cell proliferation. SW48 (human colon cancer cells, ATCC®), cells were plated in 96 well, flat-bottomed plates (Costar) at a concentration of 5,000 cells/well. Cells were then incubated at 37° C. with 5% CO2 for 24 hrs. After 24 hrs, cells were treated with 0.01% DMSO or compound. Compounds were added at a starting dose of 10 μM and three fold serial dilutions were done for a total often points. Following compound addition, cells were incubated at 37° C. with 5% CO2 for 72 hrs. Proliferation was measured by CellTiter Glo reagent using the standard protocol (Promega) and a Glomax multi+detection system (Promega). Percent proliferation inhibition was calculated using the following formula: % inhibition=(control−treatment)/control*100. Control is defined as vehicle alone. IC50 curves were generated using the nonlinear regression analysis (four parameter) with GraphPad Prism 6.
Conjugates are assessed for receptor-dependent cytotoxicity by the difference between an NTSR1-targeting conjugate, and the corresponding conjugate with the same linker moiety and active agent where the NTSR1-targeting domain has been scrambled.

T1 sequence (P30989 whole entry): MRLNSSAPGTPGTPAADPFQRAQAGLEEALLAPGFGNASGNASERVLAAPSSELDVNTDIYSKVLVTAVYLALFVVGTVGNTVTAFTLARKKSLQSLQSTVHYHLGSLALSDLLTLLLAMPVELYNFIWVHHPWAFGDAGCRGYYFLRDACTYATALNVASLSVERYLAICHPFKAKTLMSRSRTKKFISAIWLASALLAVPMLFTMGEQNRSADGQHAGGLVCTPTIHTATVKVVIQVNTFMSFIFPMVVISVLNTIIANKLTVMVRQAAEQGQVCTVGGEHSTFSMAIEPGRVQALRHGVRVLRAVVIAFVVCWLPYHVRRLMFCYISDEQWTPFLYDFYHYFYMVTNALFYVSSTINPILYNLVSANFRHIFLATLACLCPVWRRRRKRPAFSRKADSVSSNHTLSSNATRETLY

As a reminder, the Ki is a dissociation constant, usually derived from enzyme kinetics or from competition with a known ligand. `CO[C@H]1C(=O)[C@]2(C)[C@@H](OC)C[C@H]3OC[C@@]3(OC(C)=O)[C@H]2[C@H](OC(=O)c2ccccc2)[C@]2(O)C[C@H](OC(=O)[C@H](OC(=O)OCCSSC(C)(C)[C@H](NC(C)=O)C(=O)N3CCC[C@H]3C(=O)N[C@@H](CCCNC(=N)N)C(=O)N[C@@H](CCCNC(=N)N)C(=O)N3CCC[C@H]3C(=O)N[C@@H](Cc3ccc(O)cc3)C(=O)N[C@H](C(=O)N[C@@H](CC(C)C)C(=O)O)C(C)(C)C)[C@@H](NC(=O)OC(C)(C)C)c3ccccc3)C(C)=C1C2(C)C` [Compound 2]: the Ki on human NTSR1 is 3.97 nM.
Take `CO[C@H]1C(=O)[C@]2(C)[C@@H](OC)C[C@H]3OC[C@@]3(OC(C)=O)[C@H]2[C@H](OC(=O)c2ccccc2)[C@]2(O)C[C@H](OC(=O)[C@H](OC(=O)CNC(=O)[C@H](CC(C)C)NC(=O)[C@H](Cc3ccccc3)NC(=O)CNC(=O)CCCCCN3C(=O)CC(SC(C)(C)[C@H](NC(C)=O)C(=O)N4CCC[C@H]4C(=O)N[C@@H](CCCNC(=N)N)C(=O)N[C@@H](CCCNC(=N)N)C(=O)N4CCC[C@H]4C(=O)N[C@@H](Cc4ccc(O)cc4)C(=O)N[C@H](C(=O)N[C@@H](CC(C)C)C(=O)O)C(C)(C)C)C3=O)[C@@H](NC(=O)OC(C)(C)C)c3ccccc3)C(C)=C1C2(C)C` (some centres unmarked) [Compound 3]: the Ki at human NTSR1 was found to be 1.64 nM.
Same read-out and setting: in the case of `CC[C@H](C)[C@H](NC(=O)[C@H](Cc1ccc(O)cc1)NC(=O)[C@@H]1CCCN1C(=O)[C@H](CCCNC(=N)N)NC(=O)[C@@H](CCCNC(=N)N)NC(=O)[C@@H]1CCCN1C(=O)[C@H](CCCCNC(=O)CCSC1CC(=O)N(CCCCCC(=O)NCC(=O)N[C@@H](Cc2ccccc2)C(=O)N[C@@H](CC(C)C)C(=O)NCC(=O)NCCCN2C(=O)CC(SCCC(=O)N(C)[C@@H](C)C(=O)O[C@H]3CC(=O)N(C)c4cc(cc(OC)c4Cl)C/C(C)=C/C=C/[C@@H](OC)[C@@]4(O)C[C@H](OC(=O)N4)[C@@H](C)[C@@H]4O[C@@]34C)C2=O)C1=O)NC(C)=O)C(=O)N[C@@H](C[Si](C)(C)C)C(=O)O` (some centres unmarked) [Compound 38] it was 0.087 nM; in that of `COc1cc2cc(c1Cl)N(C)C(=O)C[C@H](OC(=O)[C@H](C)N(C)C(=O)CCSC1CC(=O)N(CCCNC(=O)CNC(=O)[C@H](CC(C)C)NC(=O)[C@H](Cc3ccccc3)NC(=O)CNC(=O)CCCCCN3C(=O)CC(SCCC(=O)NCCCC[C@H](NC(C)=O)C(=O)N4CCC[C@H]4C(=O)N[C@H](CCCNC(=N)N)C(=O)N[C@@H](CCCNC(=N)N)C(=O)N4CCC[C@H]4C(=O)N[C@@H](Cc4ccc(O)cc4)C(=O)N[C@H](C(=O)N[C@@H](C[Si](C)(C)C)C(=O)O)[C@@H](C)OC)C3=O)C1=O)[C@]1(C)O[C@H]1[C@H](C)[C@@H]1C[C@@](O)(NC(=O)O1)[C@H](OC)/C=C/C=C(\C)C2` (some centres unmarked) [Compound 39], 0.8 nM; in that of `COc1cc2cc(c1Cl)N(C)C(=O)C[C@H](OC(=O)[C@H](C)N(C)C(=O)CCSC1CC(=O)N(CCCNC(=O)CNC(=O)[C@H](CC(C)C)NC(=O)[C@H](Cc3ccccc3)NC(=O)CNC(=O)CCCCCN3C(=O)CC(SCCC(=O)NCCCC[C@H](NC(C)=O)C(=O)N4CCC[C@H]4C(=O)N[C@H](CCCNC(=N)N)C(=O)N[C@@H](CCCNC(=N)N)C(=O)N4CCC[C@H]4C(=O)N[C@@H](Cc4ccc(O)cc4)C(=O)N[C@H](C(=O)N[C@@H](C[Si](C)(C)C)C(=O)O)C(C)(C)C)C3=O)C1=O)[C@]1(C)O[C@H]1[C@H](C)[C@@H]1C[C@@](O)(NC(=O)O1)[C@H](OC)/C=C/C=C(\C)C2` (some centres unmarked) [Compound 40], 0.36 nM.
Take `CC[C@H](C)[C@@H]([C@@H](CC(=O)N1CCC[C@H]1[C@H](OC)[C@@H](C)C(=O)N[C@H](C)[C@@H](O)c1ccccc1)OC)N(C)C(=O)[C@@H](NC(=O)[C@H](C(C)C)N(C)C(=O)OCc1ccc(NC(=O)[C@H](CCCNC(N)=O)NC(=O)[C@@H](NC(=O)CCCCCN2C(=O)CC(SCCC(=O)NCCOCCOCCC(=O)NCCCC[C@H](NC(C)=O)C(=O)N3CCC[C@H]3C(=O)N[C@@H](CC(C)C)C(=O)N3CCC[C@H]3C(=O)N(C)[C@@H](CCCNC(=N)N)C(=O)N[C@H](C(=O)N[C@@H](CCCNC(=N)N)C(=O)N[C@@H](Cc3ccc(O)cc3)C(=O)O)C(C)(C)C)C2=O)C(C)C)cc1)C(C)C` (some centres unmarked) [Compound 94]: the IC50 in test [1] worked out at 52.5 nM.
Consider `CC[C@H](C)[C@@H]([C@@H](CC(=O)N1CCC[C@H]1[C@H](OC)[C@@H](C)C(=O)N[C@H](C)[C@@H](O)c1ccccc1)OC)N(C)C(=O)[C@@H](NC(=O)[C@H](C(C)C)N(C)C(=O)OCc1ccc(NC(=O)[C@H](CCCNC(N)=O)NC(=O)[C@@H](NC(=O)CCCCCN2C(=O)CC(SCCC(=O)NCCOCCOCCOCCOCCC(=O)NCCCC[C@H](NC(C)=O)C(=O)N3CCC[C@H]3C(=O)N[C@@H](CC(C)C)C(=O)N3CCC[C@H]3C(=O)N(C)[C@@H](CCCNC(=N)N)C(=O)N[C@H](C(=O)N[C@@H](CCCNC(=N)N)C(=O)N[C@@H](Cc3ccc(O)cc3)C(=O)O)C(C)(C)C)C2=O)C(C)C)cc1)C(C)C` (some centres unmarked) [Compound 95], for which the IC50 in test [1] was found to be 60.1 nM.
Still for that read-out and setting: then `CC[C@H](C)[C@@H]([C@@H](CC(=O)N1CCC[C@H]1[C@H](OC)[C@@H](C)C(=O)N[C@H](C)[C@@H](O)c1ccccc1)OC)N(C)C(=O)[C@@H](NC(=O)[C@H](C(C)C)N(C)C(=O)OCc1ccc(NC(=O)[C@H](CCCNC(N)=O)CC(=O)[C@@H](NC(=O)CCCCCN2C(=O)CC(SCCC(=O)NCCOCCOCCOCCOCCOCCOCCOCCOCCC(=O)NCCCC[C@H](NC(C)=O)C(=O)N3CCC[C@H]3C(=O)N[C@@H](CC(C)C)C(=O)N3CCC[C@H]3C(=O)N(C)[C@@H](CCCNC(=N)N)C(=O)N[C@H](C(=O)N[C@@H](CCCNC(=N)N)C(=O)N[C@@H](Cc3ccc(O)cc3)C(=O)O)C(C)(C)C)C2=O)C(C)C)cc1)C(C)C` (some centres unmarked) [Compound 96], with 76.7 nM.
Turning to `CCc1c2c(nc3ccc(O)cc13)-c1cc3c(c(=O)n1C2)COC(=O)[C@@]3(CC)OC(=O)OCCSSC(C)(C)[C@H](NC(C)=O)C(=O)N1CCC[C@H]1C(=O)N[C@@H](CC(C)C)C(=O)N1CCC[C@H]1C(=O)N[C@@H](CCCNC(=N)N)C(=O)N[C@H](C(=O)N[C@@H](CCCNC(=N)N)C(=O)N[C@@H](Cc1ccc(O)cc1)C(=O)O)C(C)(C)C` [Compound 97], in test [1], the IC50 is 122 nM.
As to `CCc1c2c(nc3ccc(O)cc13)-c1cc3c(c(=O)n1C2)COC(=O)[C@@]3(CC)OC(=O)OCc1ccc(NC(=O)[C@H](CCCNC(N)=O)NC(=O)[C@@H](NC(=O)CCCCCN2C(=O)CC(SC(C)(C)[C@H](NC(C)=O)C(=O)N3CCC[C@H]3C(=O)N[C@@H](CC(C)C)C(=O)N3CCC[C@H]3C(=O)N[C@@H](CCCNC(=N)N)C(=O)N[C@H](C(=O)N[C@@H](CCCNC(=N)N)C(=O)N[C@@H](Cc3ccc(O)cc3)C(=O)O)C(C)(C)C)C2=O)C(C)C)cc1` (some centres unmarked) [Compound 98], the IC50 in test [1] turned out to be 61 nM.
`CCc1c2c(nc3ccc(O)cc13)-c1cc3c(c(=O)n1C2)COC(=O)[C@@]3(CC)OC(=O)CNC(=O)CNC(=O)[C@H](CC(C)C)NC(=O)[C@H](Cc1ccccc1)NC(=O)CNC(=O)CCCCCN1C(=O)CC(SC(C)(C)[C@H](NC(C)=O)C(=O)N2CCC[C@H]2C(=O)N[C@@H](CC(C)C)C(=O)N2CCC[C@H]2C(=O)N[C@@H](CCCNC(=N)N)C(=O)N[C@H](C(=O)N[C@@H](CCCNC(=N)N)C(=O)N[C@@H](Cc2ccc(O)cc2)C(=O)O)C(C)(C)C)C1=O` (some centres unmarked) [Compound 99]: the IC50 in test [1] is 784 nM.
